Assay results published in US20040235849A1, “Tetrahydroquinoxalines acting as bradykinin antagonists” (priority 2001, published 2004).

Molecular target: T1, human B1 receptor (Homo sapiens, UniProt P46663)
T1 construct: expressed in transfected cells
T1 sequence (P46663 1-353): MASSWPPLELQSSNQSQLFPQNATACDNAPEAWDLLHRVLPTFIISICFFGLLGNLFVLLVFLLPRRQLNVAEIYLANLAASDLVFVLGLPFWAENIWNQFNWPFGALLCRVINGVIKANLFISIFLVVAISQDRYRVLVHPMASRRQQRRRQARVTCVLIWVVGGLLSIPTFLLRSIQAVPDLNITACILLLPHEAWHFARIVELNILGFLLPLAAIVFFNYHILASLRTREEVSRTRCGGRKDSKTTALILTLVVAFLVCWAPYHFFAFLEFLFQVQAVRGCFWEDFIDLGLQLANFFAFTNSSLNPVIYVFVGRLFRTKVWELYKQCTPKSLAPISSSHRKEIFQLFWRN
Assay: Functional in vitro assay: B1 receptor antagonism measured via agonist-induced intracellular calcium release in recombinant cell lines
Type: cell-based
Conditions: stable cell lines, e.g. CHO or HEK 293, recombinantly expressing the human B1 receptor
Source text: 1. Functional in vitro Assay
Agonists such as des-Arg9-BK and des-Arg10-kallidin activate the B1 receptor and lead, via stimulation of phospholipase C, to release of calcium ions from intracellular stores. Antagonists block the activation of the receptor by the agonists and thus also the agonist-dependent stimulation of phospholipase C and the intracellular calcium release induced thereby.
A functional in vitro assay can be carried out with stable cell lines, e.g. CHO or HEK 293, which recombinantly express the human B1 receptor. This entails measuring the activation of the receptor by the agonist indirectly via the intracellular calcium release induced thereby (in microtiter plates with 96, 384 and 1536 wells/plate). The effect of the tested substances can be stated as IC50.

O=C(CC1C(=O)Nc2ccccc2N1S(=O)(=O)c1cc(Cl)ccc1Oc1ccc(Cl)cc1)NC1CCCCCC1 (centres unmarked) [Example 170]
IC50: 0.025 µM

O=C(CC1C(=O)Nc2ccccc2N1S(=O)(=O)c1ccc(Cl)cc1Cl)NC1CCCCCC1 (centres unmarked) [Example 177]
IC50: 0.017 µM
